We go through 17 compounds from patent US20160221948A1, “NITROGEN-CONTAINING SATURATED HETEROCYCLIC COMPOUND” (SUMITOMO CHEMICAL COMPANY, LIMITED, priority 2013, published 2016).

Data set [1] relates to Slc:ddY mice. Description: Mouse Y-shaped maze test, scopolamine-induced memory impairment. Type of data set: in vivo. The settings on record: for spontaneous alternations: Scopolamine HBr 0.6 mg/kg subcutaneous. The method, then: Evaluation of amelioration in cognitive impairment using mouse Y-shaped maze test (hereinafter, may be called “Y-maze test”)
In the Y-maze test using Slc:ddY mice (male, Japan SLC, Inc.) with body weight of 25-35 g or 27-30 g, when 0.6 mg/kg of Scopolamine HBr (cat. No. S0929, Sigma Aldrich, USA) is subcutaneously administered to mice, memory impairment is caused, and reducing in spontaneous alternation is observed. Accordingly, mice were pre-treated by orally receiving compounds involved with the present invention, and ameliorating action in memory impairment was evaluated. […] (hereinafter, spontaneous alternations in each group in Example 21 are shown: 0.5% MC receiving group, 71.2±3.5; Scopolamine receiving group, 47.5±2.6; 1 mg/kg receiving group, 60.7±2.6; 3 mg/kg receiving group, 64.6±2.2.)

For data set [2], the system named is Slc:ddY mice. Description: Mouse novel object recognition test (mORT). The data set is classed as in vivo. The settings on record: 3 mg/kg (oral), administered before the first trial. As for the experimental part: Evaluation of cognitive function using mouse novel object recognition test (hereinafter, may be called “mORT”)
In the mORT using Slc:ddY mice (male, Japan SLC, Inc.) with body weight of 25-45 g or 35-40 g, memory deterioration to familiar subject depending on the interval time between the first trial (training) and the second trial (test) is observed. If the second trial is performed 24 hours after performing the first trial, significant forgetting is observed. […] […] (discrimination index as indexes for cognitive function are shown: 0.5% MC receiving group, 0.054±0.026; 3 mg/kg receiving group, 0.245±0.066.)

The target of another data set is human SSTR4 (Homo sapiens, UniProt P31391). The data set is described as follows: Evaluation of agonist activities using human SSTR4-stably expressing cells (aequorin luminescence). The data set is classed as cell-based. Also noted: expressed in transfected cells; host or cells: HEK293. The note with it: for SSTR4 agonist activity compared with other compounds: Tables 25 to 27; for EC50: luminescence signal, 1 μmol/L somatostatin taken as 100%. As for the experimental part:
Evaluation of Agonist Activities Using Cells that stably expressing human-derived SSTR4 (human SSTR4-stably expressing cells)
(1) Human SSTR4-Stably Expressing Cells
Human SSTR4-stably expressing cells were prepared, and cultured. Specifically, HEK293 cells, human kidney-derived cells, were used as host cells. By introducing pcDNA3.1 (cat. No. V79020, invitrogen, Carlsbad, Calif., USA) to which human SSTR gene was inserted into HEK293 cells, human SSTR4-stably expressing cell line was obtained. For selection, G418 (cat. No. 16513-84, Nacalai tesque, Japan) was used.
As the culture medium, D-MEM medium (cat. No. 11995, GIBCO, USA), containing 10% FBS and 200 μg/mL G418, was used, the culture was performed in a 225 cm^2 flask (cat. No. 11-006-010, Iwaki, Japan).
At about 80% confluence, the cells were harvested by treating with 20-fold diluted 0.25% Trypsin-EDTA (cat. No. 35554-64, Nacalai, tesque, Japan). The harvested cells were prepared at a reaction medium composed of Hanks Buffer (cat. No. 14065-056, invitrogen, Carlsbad, Calif., USA)/20 mM Hepes (cat. No. 15630-080, invitrogen, Carlsbad, Calif., USA), and 0.1% BSA (cat. No. A7906, Sigma Aldrich, USA) to 70000 cells/mL. Gα16 and apoaequorin were transiently introduced to the harvested cells, and the cells were seeded to a 384 well plate (cat. No. 781090, Greiner, Germany) at about 2000 cells/30 μL/well. On the next day of cell seeding, Coelenterazine H (cat. No. S2011, Promega, USA) was added to each well (10 μL/well) to make a final concentration of 0.5 μmol/L, and the plate was centrifuged. Then, the plate was left at room temperature for 4 hours in shaded state.
(2) Preparation of Test Compounds
DMSO solution of each test compound having 1000-fold larger concentration than the final concentration was prepared. The DMSO solutions were made to have 10-fold concentration than the final concentration with Hanks/20 mmol/L Hepes/0.1% BSA.
(3) Evaluation of Agonist Activity
For detection of luminescence signal due to SSTR4-stimulation, FDSS7000 (manufactured by Hamamatsu Photonics K.K.) was used. To plates having cells and the luminescence substrate, solutions of test compounds were added, then each luminescence signal was measured for 90 seconds, and each relative luminescence unit (RLU) was calculated. Based on luminescence signal from the wells to which a 1 μmol/L somatostatin solution was added taken as 100%, agonist activity of each test compound was evaluated.

Data set [3] is described as follows: Pharmacokinetic test (PK test) using rodents. Type of data set: in vivo. The note with it: mouse, brain and plasma; mice, 10 mg/kg oral, an hour and 4 hours after; read-out: brain-plasma concentration ratio. As for the experimental part:
Moreover, it was verified, as the results of a pharmacokinetic test (PK test) using rodents, that the compound of the present invention has more excellent in vivo kinetics, central nervous system penetration, and exposure level, compared with the pyrrolidine derivative described in Patent Literature 1. In particular, the following Test Example 8 was performed.
Pharmacokinetic Test (PK Test) Using Rodents
Compounds of the present invention were orally administered to mice at a dose of 10 mg/kg, and an hour and 4 hours after, the plasma and the brain were collected, concentrations of the administered compounds were measured by LC/MS/MS. As well, protein binding rates in the plasma and the brain were measured with equilibrium dialysis method, and concentrations of non-binding compounds were calculated. The brain-plasma concentration ratio was about 5 in any cases of an hour and 4 hours after for compounds obtained in Examples 7, 14, 15, 16, 17, 18, 20, 21, 27, 40, and 50, which indicated excellent central nervous system penetration.

human SSTR4, sequence (P31391 whole entry): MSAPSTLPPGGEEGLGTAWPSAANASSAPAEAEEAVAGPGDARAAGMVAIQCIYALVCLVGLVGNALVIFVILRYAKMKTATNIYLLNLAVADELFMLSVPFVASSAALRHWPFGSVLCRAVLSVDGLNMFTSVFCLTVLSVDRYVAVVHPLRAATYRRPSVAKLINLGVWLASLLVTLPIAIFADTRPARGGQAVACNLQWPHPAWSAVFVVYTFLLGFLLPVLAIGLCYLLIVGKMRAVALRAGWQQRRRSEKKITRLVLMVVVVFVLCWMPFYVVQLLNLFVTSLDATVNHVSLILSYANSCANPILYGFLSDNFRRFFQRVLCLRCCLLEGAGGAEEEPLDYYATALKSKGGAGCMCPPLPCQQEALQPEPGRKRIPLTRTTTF

Turning to `CN1CCC[C@H](C(=O)NC(C)(C)c2cccc3ccccc23)C1` [Example 2, (3S)-1-methyl-N-[2-(naphthalene-1-yl)propane-2-yl]pyperidine-3-carboxamide], the values for the spontaneous alternations in the data set on Slc:ddY mice [1] (1 mg/kg oral) and with Slc:ddY mice [1] (3 mg/kg oral) were 59.6±3.2 and 65.0±1.8, respectively. In addition, in the data set with Slc:ddY mice [1] (at 1 or 3 mg/kg (oral)), the “ameliorating action in memory impairment” value is given as “significant ameliorating action in memory impairment”. For the same compound, the memory enhancing action entry with Slc:ddY mice [2] is on record as “a tendency to enhance memory”. On human SSTR4, the “SSTR4 agonist activity compared with other compounds” value is recorded as “stronger SSTR4 agonist activity”.

A word on the EC50: it is the midpoint of the concentration-response curve. For the compound `CN1CCCC(C(=O)NC(C)(C)c2cc(Cl)cc(Cl)c2)C1` (centres unmarked) [Example 7], the Kp in data set [3] was around 5. Further, at human SSTR4, the “SSTR4 agonist activity compared with other compounds” value was “stronger SSTR4 agonist activity” and the 50% effective concentration (EC50) was found to be 4.3 nM.

On to `Cc1c(Cl)cccc1C(C)(C)NC(=O)C1CCCN(C)C1` (centres unmarked) [Example 14], for which the Kp in data set [3] is around 5. The EC50 at human SSTR4 was found to be 5.7 nM.

Regarding `CN1CCCC(C(=O)NC(C)(C)c2cc(Cl)ccc2Cl)C1` (centres unmarked) [Example 15], the Kp in data set [3] was around 5. Moreover, on human SSTR4, the “SSTR4 agonist activity compared with other compounds” value is “stronger SSTR4 agonist activity” and it took 3.5 nM to reach a half-maximal effect (EC50).

As to `CN1CCCC(C(=O)NC(C)(C)c2cccc(Cl)c2Cl)C1` (centres unmarked) [Example 16], in data set [3], the Kp was around 5. Further, on human SSTR4, the “SSTR4 agonist activity compared with other compounds” value is recorded as “stronger SSTR4 agonist activity” and the EC50 was 2.3 nM.

As to `CN1CCCC(C(=O)NC(C)(C)c2ccc(Cl)cc2Cl)C1` (centres unmarked) [Example 17], the Kp in data set [3] was around 5. In addition, at human SSTR4, the “SSTR4 agonist activity compared with other compounds” value is “stronger SSTR4 agonist activity” and the 50% effective concentration (EC50) is 2.3 nM.

In the case of `CN1CCC[C@H](C(=O)NC(C)(C)c2cc(Cl)cc(Cl)c2)C1` [Example 18], the Kp in data set [3] is around 5. Further, at human SSTR4, the “SSTR4 agonist activity compared with other compounds” value is recorded as “stronger SSTR4 agonist activity” and the EC50 worked out at 2 nM.

`CN1CCC[C@H](C(=O)NC(C)(C)c2ccc(Cl)cc2Cl)C1` [Example 20, (3S)—N-[2-(2,4-dichlorophenyl)propane-2-yl]-1-methylpiperidine-3-carboxamide]: the Kp in data set [3] was around 5. On human SSTR4, the “SSTR4 agonist activity compared with other compounds” value was “stronger SSTR4 agonist activity” and the concentration giving a half-maximal response (EC50) was determined as 1.3 nM.

Consider `Cc1c(Cl)cccc1C(C)(C)NC(=O)[C@H]1CCCN(C)C1` [Example 27, (3S)—N-[2-(3-chloro-2-methylphenyl)propane-2-yl]-1-methylpiperidine-3-carboxamide], for which the Kp in data set [3] was around 5. Further, on human SSTR4, the “SSTR4 agonist activity compared with other compounds” value is on record as “stronger SSTR4 agonist activity” and it took 2.1 nM to reach a half-maximal effect (EC50).

As to `CN1CCC[C@H](C(=O)NC(C)(C)c2ccccc2Cl)C1` [Example 40, (3S)—N-[2-(2-chlorophenyl)propane-2-yl]-1-methylpiperidine-3-carboxamide], the Kp in data set [3] is around 5. At human SSTR4, this compound yielded a 50% effective concentration (EC50) of 4.8 nM.

Take `Cc1ccc(Cl)cc1C(C)(C)NC(=O)[C@H]1CCCN(C)C1` [Example 50, (3S)—N-[2-(5-chloro-2-methylphenyl)propane-2-yl]-1-methylpiperidine-3-carboxamide]: the Kp in data set [3] is around 5. The concentration for a half-maximal effect (EC50) at human SSTR4 is 4.3 nM.

As for `CCCN1CCCC(C(=O)NC(C)(C)c2cccc3ccccc23)C1` (centres unmarked) [Example 117], it took 6.9 nM to reach a half-maximal effect on human SSTR4 (EC50).

`CCCCN1CCCC(C(=O)NC(C)(C)c2cccc3ccccc23)C1` (centres unmarked) [Example 118] gave an EC50 on human SSTR4 of 55.2 nM.

Consider `CC(C)N1CCCC(C(=O)NC(C)(C)c2cccc3ccccc23)C1` (centres unmarked) [Example 119], for which the EC50 at human SSTR4 turned out to be 3.5 nM.

On to `CCC(C)N1CCCC(C(=O)NC(C)(C)c2cccc3ccccc23)C1` (centres unmarked) [Example 120], for which, on human SSTR4, the EC50 was found to be 22.7 nM.

`CC(C)N1CCC[C@H](C(=O)NC(C)(C)c2ccccc2Cl)C1` [Example 121] showed an EC50 on human SSTR4 of 11.7 nM.

The compound `[2H]C([2H])([2H])N1CCC[C@H](C(=O)NC(C)(C)c2ccccc2Cl)C1` [Example 122] registered an EC50 at human SSTR4 of 3.6 nM.
